System: Transport facilitation protein genes
Assay: DNA chip mRNA expression in yeast, transport facilitation protein genes (Table 5)
Assay type: cell-based, Saccharomyces cerevisiae S288C
How it was run: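 Values are treated/untreated fluorescence ratios from a whole-genome yeast DNA chip hybridized over 12 hours at 65° C with Cy3- or Cy5-labelled cDNA from poly(A) mRNA. Log-phase S288C yeast in YPD at 25° C had received a single toxic chemical for two hours, dosed to slow growth without killing.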

Substance: manganese ethylenebis(dithiocarbamate) [(8)]
- The level of expressed mRNA in the presence of chemical substance/The level of expressed mRNA in the absence of chemical substance (yeast gene YBL030C): 0.8
- The level of expressed mRNA in the presence of chemical substance/The level of expressed mRNA in the absence of chemical substance (yeast gene YBL099W): 0.8
- The level of expressed mRNA in the presence of chemical substance/The level of expressed mRNA in the absence of chemical substance (yeast gene YBR052C): 1.3
- The level of expressed mRNA in the presence of chemical substance/The level of expressed mRNA in the absence of chemical substance (yeast gene YBR068C): 1.0
- The level of expressed mRNA in the presence of chemical substance/The level of expressed mRNA in the absence of chemical substance (yeast gene YBR127C): 1.1
- The level of expressed mRNA in the presence of chemical substance/The level of expressed mRNA in the absence of chemical substance (yeast gene YBR132C): 0.8
- The level of expressed mRNA in the presence of chemical substance/The level of expressed mRNA in the absence of chemical substance (yeast gene YBR207W): 0.9
- The level of expressed mRNA in the presence of chemical substance/The level of expressed mRNA in the absence of chemical substance (yeast gene YBR293W): 0.9
- The level of expressed mRNA in the presence of chemical substance/The level of expressed mRNA in the absence of chemical substance (yeast gene YBR294W): 1.0
- The level of expressed mRNA in the presence of chemical substance/The level of expressed mRNA in the absence of chemical substance (yeast gene YBR295W): 0.9
- The level of expressed mRNA in the presence of chemical substance/The level of expressed mRNA in the absence of chemical substance (yeast gene YBR298C): 0.5
- The level of expressed mRNA in the presence of chemical substance/The level of expressed mRNA in the absence of chemical substance (yeast gene YCL025C): 0.7
- The level of expressed mRNA in the presence of chemical substance/The level of expressed mRNA in the absence of chemical substance (yeast gene YCL038C): 1.2
- The level of expressed mRNA in the presence of chemical substance/The level of expressed mRNA in the absence of chemical substance (yeast gene YCR024C-A): 0.8
- The level of expressed mRNA in the presence of chemical substance/The level of expressed mRNA in the absence of chemical substance (yeast gene YCR037C): 0.7
- The level of expressed mRNA in the presence of chemical substance/The level of expressed mRNA in the absence of chemical substance (yeast gene YCR098C): 1.0
- The level of expressed mRNA in the presence of chemical substance/The level of expressed mRNA in the absence of chemical substance (yeast gene YDL128W): 0.8
- The level of expressed mRNA in the presence of chemical substance/The level of expressed mRNA in the absence of chemical substance (yeast gene YDL198C): 1.1
- The level of expressed mRNA in the presence of chemical substance/The level of expressed mRNA in the absence of chemical substance (yeast gene YDL210W): 1.1
- The level of expressed mRNA in the presence of chemical substance/The level of expressed mRNA in the absence of chemical substance (yeast gene YDL245C): 1.2
- The level of expressed mRNA in the presence of chemical substance/The level of expressed mRNA in the absence of chemical substance (yeast gene YDR038C): 0.9
- The level of expressed mRNA in the presence of chemical substance/The level of expressed mRNA in the absence of chemical substance (yeast gene YDR039C): 0.6
- The level of expressed mRNA in the presence of chemical substance/The level of expressed mRNA in the absence of chemical substance (yeast gene YDR086C): 1.9
- The level of expressed mRNA in the presence of chemical substance/The level of expressed mRNA in the absence of chemical substance (yeast gene YDR270W): 1.2
- The level of expressed mRNA in the presence of chemical substance/The level of expressed mRNA in the absence of chemical substance (yeast gene YDR298C): 1.2
- The level of expressed mRNA in the presence of chemical substance/The level of expressed mRNA in the absence of chemical substance (yeast gene YDR342C): 1.2
- The level of expressed mRNA in the presence of chemical substance/The level of expressed mRNA in the absence of chemical substance (yeast gene YDR343C): 1.2
- The level of expressed mRNA in the presence of chemical substance/The level of expressed mRNA in the absence of chemical substance (yeast gene YDR345C): 1.2
- The level of expressed mRNA in the presence of chemical substance/The level of expressed mRNA in the absence of chemical substance (yeast gene YDR387C): 0.7
- The level of expressed mRNA in the presence of chemical substance/The level of expressed mRNA in the absence of chemical substance (yeast gene YDR497C): 0.6
- The level of expressed mRNA in the presence of chemical substance/The level of expressed mRNA in the absence of chemical substance (yeast gene YEL027W): 0.9
- The level of expressed mRNA in the presence of chemical substance/The level of expressed mRNA in the absence of chemical substance (yeast gene YEL063C): 0.6
- The level of expressed mRNA in the presence of chemical substance/The level of expressed mRNA in the absence of chemical substance (yeast gene YEL065W): 0.9
- The level of expressed mRNA in the presence of chemical substance/The level of expressed mRNA in the absence of chemical substance (yeast gene YER053C): 1.3
- The level of expressed mRNA in the presence of chemical substance/The level of expressed mRNA in the absence of chemical substance (yeast gene YFL011W): 0.8
- The level of expressed mRNA in the presence of chemical substance/The level of expressed mRNA in the absence of chemical substance (yeast gene YFL041W): 1.0
- The level of expressed mRNA in the presence of chemical substance/The level of expressed mRNA in the absence of chemical substance (yeast gene YFL050C): 0.9
- The level of expressed mRNA in the presence of chemical substance/The level of expressed mRNA in the absence of chemical substance (yeast gene YFL054C): 1.5
- The level of expressed mRNA in the presence of chemical substance/The level of expressed mRNA in the absence of chemical substance (yeast gene YGL006W): 0.9
- The level of expressed mRNA in the presence of chemical substance/The level of expressed mRNA in the absence of chemical substance (yeast gene YGL008C): 0.7
- The level of expressed mRNA in the presence of chemical substance/The level of expressed mRNA in the absence of chemical substance (yeast gene YGL104C): 0.8
- The level of expressed mRNA in the presence of chemical substance/The level of expressed mRNA in the absence of chemical substance (yeast gene YGL167C): 0.8
- The level of expressed mRNA in the presence of chemical substance/The level of expressed mRNA in the absence of chemical substance (yeast gene YGL255W): 0.7
- The level of expressed mRNA in the presence of chemical substance/The level of expressed mRNA in the absence of chemical substance (yeast gene YGR055W): 1.1
- The level of expressed mRNA in the presence of chemical substance/The level of expressed mRNA in the absence of chemical substance (yeast gene YGR065C): 1.0
- The level of expressed mRNA in the presence of chemical substance/The level of expressed mRNA in the absence of chemical substance (yeast gene YGR082W): 0.8
- The level of expressed mRNA in the presence of chemical substance/The level of expressed mRNA in the absence of chemical substance (yeast gene YGR096W): 1.0
- The level of expressed mRNA in the presence of chemical substance/The level of expressed mRNA in the absence of chemical substance (yeast gene YGR138C): 1.0
- The level of expressed mRNA in the presence of chemical substance/The level of expressed mRNA in the absence of chemical substance (yeast gene YGR191W): 0.7
- The level of expressed mRNA in the presence of chemical substance/The level of expressed mRNA in the absence of chemical substance (yeast gene YGR197C): 0.8

From US8192962B2, “Processes for detecting toxic substances” (Daikin Industries, Ltd., priority 2001, dated 2012)
